Experimental data: PMC6522510 (Nature Communications, 2019)
Several values for one entry are separate records, joined by “and”; a condition that tells them apart may be missing. Equal values may be shown once. Read-outs that look alike come from different tables or passages of the source.

Tests used:
CMS [1] = system: CMS; design: species or system AML cell lines (8); Primary HTS, single concentration about 10 uM, Cell Titer Glo viability; log10 luminescence, per cent inhibition relative to cycloheximide control; details: 72 h, relative to cycloheximide control, log10 luminescence, inhibitor
M07e [2] = test: Secondary dose-response HTS, Cell Titer Glo; type: cell-based, human; details: Homo sapiens, M-07e; secondary high-throughput screen; M07e; read-out: average effective concentration, M07e
M07e [3] = system: M07e; design: species or system AML cell lines (8); Primary HTS, single concentration about 10 uM, Cell Titer Glo viability; log10 luminescence, per cent inhibition relative to cycloheximide control; details: 72 h, relative to cycloheximide control, log10 luminescence, inhibitor
CMK [4] = test: cells; design: species or system AML cell lines (8); Secondary HTS, 10-point dose-response in triplicate, Cell Titer Glo viability, four-parameter fit EC50; details: Homo sapiens, CMK, 72 h, read-out: CMK
ML-2 [5] = system: ML-2; design: species or system AML cell lines (8); Primary HTS, single concentration about 10 uM, Cell Titer Glo viability; log10 luminescence, per cent inhibition relative to cycloheximide control; details: 72 h, relative to cycloheximide control, log10 luminescence, inhibitor
ML-2 [6] = test: cells; design: species or system AML cell lines (8); Secondary HTS, 10-point dose-response in triplicate, Cell Titer Glo viability, four-parameter fit EC50; details: Homo sapiens, ML-2, 72 h, read-out: ML-2
MV4-11 [7] = test: cells; design: species or system AML cell lines (8); Secondary HTS, 10-point dose-response in triplicate, Cell Titer Glo viability, four-parameter fit EC50; details: Homo sapiens, MV4-11, 72 h, read-out: MV4-11
CMS [8] = test: cells; design: species or system AML cell lines (8); Secondary HTS, 10-point dose-response in triplicate, Cell Titer Glo viability, four-parameter fit EC50; details: 72 h, read-out: CMS
U937 [9] = test: cells; design: species or system AML cell lines (8); Secondary HTS, 10-point dose-response in triplicate, Cell Titer Glo viability, four-parameter fit EC50; details: Homo sapiens, U-937, 72 h, read-out: U937
MOLM-13 [10] = test: cells; design: species or system AML cell lines (8); Secondary HTS, 10-point dose-response in triplicate, Cell Titer Glo viability, four-parameter fit EC50; details: Homo sapiens, MOLM-13, 72 h, read-out: MOLM-13
MV4-11 [11] = system: MV4-11; design: species or system AML cell lines (8); Primary HTS, single concentration about 10 uM, Cell Titer Glo viability; log10 luminescence, per cent inhibition relative to cycloheximide control; details: 72 h, relative to cycloheximide control, log10 luminescence, inhibitor
U937 [12] = system: U937; design: species or system AML cell lines (8); Primary HTS, single concentration about 10 uM, Cell Titer Glo viability; log10 luminescence, per cent inhibition relative to cycloheximide control; details: 72 h, relative to cycloheximide control, log10 luminescence, inhibitor
CHRF288-11 [13] = test: cells; design: species or system AML cell lines (8); Secondary HTS, 10-point dose-response in triplicate, Cell Titer Glo viability, four-parameter fit EC50; details: 72 h, read-out: CHRF288-11
MOLM-13 [14] = system: MOLM-13; design: species or system AML cell lines (8); Primary HTS, single concentration about 10 uM, Cell Titer Glo viability; log10 luminescence, per cent inhibition relative to cycloheximide control; details: 72 h, relative to cycloheximide control, log10 luminescence, inhibitor
CMK [15] = system: CMK; design: species or system AML cell lines (8); Primary HTS, single concentration about 10 uM, Cell Titer Glo viability; log10 luminescence, per cent inhibition relative to cycloheximide control; details: 72 h, relative to cycloheximide control, log10 luminescence, inhibitor
M07e [16] = test: cells; design: species or system AML cell lines (8); Secondary HTS, 10-point dose-response in triplicate, Cell Titer Glo viability, four-parameter fit EC50; details: M-07e, 72 h, read-out: M07e
CMS [17] = test: Secondary dose-response HTS, Cell Titer Glo; type: cell-based, human; details: Homo sapiens, HTS, read-out: average effective concentration, CMS
CMK [18] = test: Secondary dose-response HTS, Cell Titer Glo; type: cell-based, human; details: Homo sapiens, CMK, read-out: average effective concentration, CMK
CHRF288-11 [19] = test: Secondary dose-response HTS, Cell Titer Glo; type: cell-based, human; details: Homo sapiens, HTS; secondary high-throughput screen; CHRF288-11; read-out: average effective concentration, CHRF288-11
U937 [20] = test: Secondary dose-response HTS, Cell Titer Glo; type: cell-based, human; details: Homo sapiens, U-937; secondary high-throughput screen; U937; read-out: average effective concentration, U937
MOLM-13 [21] = test: Secondary dose-response HTS, Cell Titer Glo; type: cell-based, human; details: Homo sapiens; secondary high-throughput screen; MOLM-13; read-out: average effective concentration, MOLM-13
MV4-11 [22] = test: Secondary dose-response HTS, Cell Titer Glo; type: cell-based, human; details: Homo sapiens; secondary high-throughput screen; MV4-11; read-out: average effective concentration, MV4-11
CHRF288-11 [23] = system: CHRF288-11; design: species or system AML cell lines (8); Primary HTS, single concentration about 10 uM, Cell Titer Glo viability; log10 luminescence, per cent inhibition relative to cycloheximide control; details: 72 h, relative to cycloheximide control, log10 luminescence; inhibitor
[24] = secondary high-throughput screen, CMS
[25] = secondary high-throughput screen

SMILES: CCCc1nc(C(C)(C)O)c(C(=O)OCc2oc(=O)oc2C)n1Cc1ccc(-c2ccccc2-c2nnn[nH]2)cc1 [OLMESARTAN MEDOXOMIL]
- CMS %inh (CMS [1]; CMS %inh, 10 µM): -4.154% and -3.286%
- EC50 (M07e [2]): 5.8 µM
- M07e %inh (M07e [3]; M07e %inh, 10 µM): -0.6363% and -1.428%
- EC50 (CMK [4]): > 10 µM
- ML-2 %inh (ML-2 [5]; ML-2 %inh, 10 µM): 0.6032% and 1.808%
- EC50 (ML-2 [6]): > 10 µM
- EC50 (MV4-11 [7]): > 10 µM
- EC50 (CMS [8]): > 10 µM
- EC50 (U937 [9]): > 10 µM
- EC50 (MOLM-13 [10]): > 10 µM
- MV4-11 %inh (MV4-11 [11]; MV4-11 %inh, 10 µM): 1.21% and -0.1295%
- U937 %inh (U937 [12]; U937 %inh, 10 µM): -0.6807% and -1.42%
- EC50 (CHRF288-11 [13]): > 10 µM
- MOLM-13 %inh (MOLM-13 [14]; MOLM-13 %inh, 10 µM): 3.566% and -1.782%
- CMK %inh (CMK [15]; CMK %inh, 10 µM): 0.5387% and -8.221%

SMILES: Cc1cc(Nc2nc(N[C@@H](C)c3ncc(F)cn3)ncc2Cl)n[nH]1 [AZD1480]
- EC50 (M07e [16]): > 10 µM
- EC50 (CMS [17]; [24]): 3.3 µM
- EC50 (CMK [18]; [25]): > 10 µM
- EC50 (ML-2 [6]): > 10 µM
- EC50 (MV4-11 [7]): > 10 µM
- EC50 (U937 [9]): > 10 µM
- EC50 (MOLM-13 [10]): > 10 µM
- EC50 (CHRF288-11 [13]): > 10 µM

SMILES: Cc1ccc(C(=O)Nc2ccc(Oc3cc4cnn(C)c4cc3-c3cn[nH]c3)c(F)c2)c(=O)n1-c1ccc(F)cc1 [Merestinib]
- EC50 (M07e [2]): 0.025 µM
- EC50 (CMK [4]): > 10 µM
- EC50 (ML-2 [6]): > 10 µM
- EC50 (MV4-11 [7]): > 10 µM
- EC50 (CMS [8]): > 10 µM
- EC50 (U937 [9]): > 10 µM
- EC50 (MOLM-13 [10]): 0.0058 µM
- EC50 (CHRF288-11 [13]): > 10 µM

SMILES: CC(C)C[C@H](NC(=O)CNC(=O)c1cc(Cl)ccc1Cl)B(O)O [IXAZOMIB]
- EC50 (CMS [17]; [24]): 0.0056 µM
- EC50 (CHRF288-11 [19]): 0.01 µM
- EC50 (M07e [2]): 0.011 µM
- EC50 (CMK [18]; [25]): 0.007 µM
- EC50 (ML-2 [6]): 0.0052 µM
- EC50 (MV4-11 [7]): > 10 µM
- EC50 (MOLM-13 [10]): 0.0067 µM
- EC50 (U937 [20]): 0.01 µM

SMILES: CO[C@H]1C[C@@H]2CC[C@@H](C)[C@@](O)(O2)C(=O)C(=O)N2CCCC[C@H]2C(=O)O[C@H]([C@H](C)C[C@@H]2CC[C@@H](O)[C@H](OC)C2)CC(=O)[C@H](C)/C=C(\C)[C@@H](O)[C@@H](OC)C(=O)[C@H](C)C[C@H](C)/C=C/C=C/C=C/1C [SIROLIMUS]
- EC50 (M07e [16]): > 10 µM
- EC50 (CMS [17]; [24]): > 10 µM
- EC50 (MOLM-13 [21]): > 10 µM
- EC50 (CMK [4]): > 10 µM
- EC50 (ML-2 [6]): > 10 µM
- EC50 (MV4-11 [22]): 0.001 µM
- EC50 (CHRF288-11 [13]): > 10 µM
- EC50 (U937 [20]): 0.001 µM

SMILES: Cc1cn(-c2cc(NC(=O)c3ccc(C)c(Nc4nccc(-c5cccnc5)n4)c3)cc(C(F)(F)F)c2)cn1 [NILOTINIB]
- EC50 (M07e [2]): > 10 µM
- EC50 (CMK [4]): > 10 µM
- EC50 (ML-2 [6]): > 10 µM
- EC50 (MV4-11 [7]): > 10 µM
- EC50 (CMS [8]): > 10 µM
- EC50 (U937 [9]): > 10 µM
- EC50 (MOLM-13 [10]): > 10 µM
- EC50 (CHRF288-11 [13]): > 10 µM

SMILES: CS(=O)(=O)c1ccc(-c2cnc(N)c(C(=O)Nc3ccccc3)n2)cc1 [VE-821]
- EC50 (M07e [2]): 6.7 µM
- EC50 (CMK [4]): > 10 µM
- EC50 (ML-2 [6]): > 10 µM
- EC50 (MV4-11 [7]): > 10 µM
- EC50 (CMS [8]): > 10 µM
- EC50 (U937 [9]): > 10 µM
- EC50 (MOLM-13 [10]): > 10 µM
- EC50 (CHRF288-11 [13]): > 10 µM

SMILES: Cc1cc(Nc2cc(N3CCN(C)CC3)nc(/C=C/c3ccccc3)n2)n[nH]1 [ENMD-2076]
- EC50 (M07e [16]): > 10 µM
- EC50 (CMS [17]): 3.2 µM
- EC50 (CMK [18]): 0.11 µM
- EC50 (ML-2 [6]): > 10 µM
- EC50 (MV4-11 [7]): 0.125 µM
- EC50 (U937 [9]): > 10 µM
- EC50 (MOLM-13 [10]): 0.0955 µM
- EC50 (CHRF288-11 [13]): > 10 µM

SMILES: C[C@]1(O)C[C@@H](c2nc(-c3ccc4ccc(-c5ccccc5)nc4c3)c3c(N)nccn32)C1 [LINSITINIB]
- EC50 (M07e [16]): > 10 µM
- CMS %inh (CMS [1]): 2.626%
- M07e %inh (M07e [3]): 2.638%
- CHRF288-11 %inh (CHRF288-11 [23]): 34.61%
- EC50 (CMK [4]): > 10 µM
- ML-2 %inh (ML-2 [5]): 11.6%
- EC50 (ML-2 [6]): > 10 µM
- EC50 (CMS [8]): > 10 µM
- EC50 (U937 [9]): > 10 µM
- EC50 (MOLM-13 [10]): > 10 µM
- EC50 (MV4-11 [22]): > 10 µM
- MV4-11 %inh (MV4-11 [11]): 7.816%
- U937 %inh (U937 [12]): 2.082%
- EC50 (CHRF288-11 [13]): > 10 µM
- MOLM-13 %inh (MOLM-13 [14]): 2.501%
- CMK %inh (CMK [15]): 18.57%

SMILES: O=C1CCC[C@@H]2[C@H]3CCC[N+]4([O-])CCC[C@@H](CN12)[C@@H]34 (stereo partly shown) [OXYMATRINE]
- EC50 (M07e [2]): 0.058 µM
- EC50 (CMK [4]): > 10 µM
- EC50 (ML-2 [6]): > 10 µM
- EC50 (MV4-11 [7]): > 10 µM
- EC50 (CMS [8]): > 10 µM
- EC50 (U937 [9]): > 10 µM
- EC50 (MOLM-13 [10]): > 10 µM
- EC50 (CHRF288-11 [13]): > 10 µM

SMILES: COc1cccc2c1c(O)c(C(=O)N(C)c1ccc(C(F)(F)F)cc1)c(=O)n2C [TASQUINIMOD]
- EC50 (M07e [2]): 1.2 µM
- EC50 (CMK [4]): > 10 µM
- EC50 (ML-2 [6]): > 10 µM
- EC50 (MV4-11 [7]): > 10 µM
- EC50 (CMS [8]): > 10 µM
- EC50 (U937 [9]): > 10 µM
- EC50 (MOLM-13 [10]): > 10 µM
- EC50 (CHRF288-11 [13]): > 10 µM
